{"source": "patent US7727995B2", "about": "“Antiherpes drug combinations” (University of Massachusetts, priority 2003, dated 2010)", "key": {"HSV1 [1]": {"tested_on": "HSV1", "details": "150 μM; trigeminal ganglia of HSV1 latent mice on Vero cells; cited from earlier work"}, "McKrae strain of HSV-1": {"tested_on": "McKrae strain of HSV-1", "test": "Inhibition of HSV encephalitis in mice, HSV-1 infection", "assay_type": "in vivo", "procedure": "(§1) BALB/c female mice at 6 weeks of age were anesthetized, their corneas lightly scratched with a 27-gauge needle, and 3 μl of infectious virus (McKrae strain of HSV-1 or G strain of HSV-2; 5×10^5 PFU) was placed on each cornea. At the time of infection, groups of ten animals were given 0.1 ml injections i.p. of vehicle (corn oil) or test drug or drug combination (e.g., HBPG or foscarnet or both) in vehicle at indicated concentrations, and the animals were returned to their cages and allowed to recover from anesthesia. Treatment was repeated by a regimen optimal for the drug combination and dose. Animals were observed daily for 30 days, and the day of death of each animal was recorded."}, "G strain of HSV-2": {"tested_on": "G strain of HSV-2", "test": "Inhibition of HSV encephalitis in mice, HSV-2 infection", "assay_type": "in vivo", "procedure": "as §1"}, "HSV2": {"tested_on": "HSV2", "details": "mice, cited from earlier work"}, "HSV1 [2]": {"tested_on": "HSV1", "details": "cited from earlier work"}, "HSV1 [3]": {"tested_on": "HSV1", "details": "cited from earlier work", "remark": "listed apart in the source"}, "[4]": {"details": "HSV1, 1 mg/kg ip in corn oil, twice daily for five days"}, "[5]": {"details": "HSV1, 2.5 mg/kg ip in corn oil, twice daily for five days"}, "[6]": {"details": "HSV1, 5 mg/kg ip in corn oil, twice daily for five days"}, "[7]": {"details": "HSV2, 1 mg/kg ip in corn oil, twice daily for five days"}, "[8]": {"details": "HSV2, 2.5 mg/kg ip in corn oil, twice daily for five days"}, "[9]": {"details": "HSV2, 5 mg/kg ip in corn oil, twice daily for five days"}, "[10]": {"details": "HSV1, 100 mg/kg ip twice daily, 5 days, observed 30 days"}, "[11]": {"details": "HSV1, 200 mg/kg ip twice daily, 5 days"}, "[12]": {"details": "HSV1, 400 mg/kg ip twice daily, 5 days"}, "[13]": {"details": "HSV2, 100 mg/kg ip twice daily, 5 days"}, "[14]": {"details": "HSV2, 200 mg/kg ip twice daily, 5 days"}, "[15]": {"details": "HSV2, 400 mg/kg ip twice daily, 5 days"}, "[16]": {"details": "Table 2, HSV2, 50 mg/kg ip, bid, 5 d"}, "[17]": {"details": "HSV1, 25 mg/kg ip in corn oil, twice daily for five days"}, "[18]": {"details": "HSV1, 50 mg/kg ip in corn oil, twice daily for five days"}, "[19]": {"details": "Table 5, HSV1, 100 mg/kg ip in corn oil, twice daily for five days"}, "[20]": {"details": "Table 2, HSV2, 100 mg/kg ip, bid, 5 d"}}, "note": "Read-outs that look alike come from different tables or passages of the source. Marks after values point to notes of the source that are not given here."}
{"smiles": "O=c1[nH]c(Nc2cccc(C(F)(F)F)c2)nc2nc[nH]c12", "note": "[m-CF3PG, N^2-(m-trifluoromethylphenyl)guanine]", "values": [{"measurement": "number of ganglia producing virus compared to control ganglia", "setting": "HSV1 [1]", "value": "significantly reduced"}]}
{"smiles": "O=c1[nH]c(Nc2ccccc2)nc2c1ncn2[C@H]1C[C@H](O)[C@@H](CO)O1", "note": "[PhdG, N^2-phenyl-2′-deoxyguanosine]", "values": [{"measurement": "number of ganglia producing virus compared to control ganglia", "setting": "HSV1 [1]", "value": "significantly reduced"}]}
{"smiles": "Nc1ccn(C[C@@H](CO)OCP(=O)(O)O)c(=O)n1", "note": "[cidofovir]", "values": [{"measurement": "Survivors/treated", "setting": "McKrae strain of HSV-1; [4]", "value": "0/10"}, {"measurement": "Survivors/treated (%)", "setting": "McKrae strain of HSV-1; [4]", "value": 0, "unit": "%"}, {"measurement": "Survivors/treated", "setting": "McKrae strain of HSV-1; [5]", "value": "3/10"}, {"measurement": "Survivors/treated (%)", "setting": "McKrae strain of HSV-1; [5]", "value": 30, "unit": "%"}, {"measurement": "Survivors/treated", "setting": "McKrae strain of HSV-1; [6]", "value": "9/10"}, {"measurement": "Survivors/treated (%)", "setting": "McKrae strain of HSV-1; [6]", "value": 90, "unit": "%"}, {"measurement": "median effective dose", "setting": "McKrae strain of HSV-1; HSV1 encephalitis, ip twice daily for five days", "value": "2.5 to 5", "unit": "mg/kg"}, {"measurement": "Survivors/treated", "setting": "G strain of HSV-2; [7]", "value": "0/10"}, {"measurement": "Survivors/treated (%)", "setting": "G strain of HSV-2; [7]", "value": 0, "unit": "%"}, {"measurement": "Survivors/treated", "setting": "G strain of HSV-2; [8]", "value": "4/10"}, {"measurement": "Survivors/treated (%)", "setting": "G strain of HSV-2; [8]", "value": 40, "unit": "%"}, {"measurement": "Survivors/treated", "setting": "G strain of HSV-2; [9]", "value": "10/10"}, {"measurement": "Survivors/treated (%)", "setting": "G strain of HSV-2; [9]", "value": 100, "unit": "%"}, {"measurement": "median effective dose", "setting": "G strain of HSV-2; HSV2 encephalitis, ip twice daily for five days", "value": "2.5 to 5", "unit": "mg/kg"}]}
{"smiles": "O=C(O)P(=O)(O)O", "note": "[foscarnet, phosphonoformate]", "values": [{"measurement": "Survivors/treated (%)", "setting": "McKrae strain of HSV-1; HSV1, 100 mg/kg ip twice daily, 5 days", "value": "(10%)"}, {"measurement": "Survivors/treated", "setting": "McKrae strain of HSV-1; [10]", "value": "1/10"}, {"measurement": "Survivors/treated (%)", "setting": "McKrae strain of HSV-1; [11]", "value": "(50%)"}, {"measurement": "Survivors/treated (%)", "setting": "McKrae strain of HSV-1; [12]", "value": "(70%)"}, {"measurement": "Survivors/treated", "setting": "G strain of HSV-2; [13]", "value": "0/10"}, {"measurement": "Survivors/treated (%)", "setting": "G strain of HSV-2; [13]", "value": "(0%)"}, {"measurement": "Survivors/treated (%)", "setting": "G strain of HSV-2; [14]", "value": "(40%)"}, {"measurement": "Survivors/treated (%)", "setting": "G strain of HSV-2; [15]", "value": "(60%)"}, {"measurement": "Survivors/treated", "setting": "G strain of HSV-2; [16]", "value": "0/10"}, {"measurement": "Survivors/treated (%)", "setting": "G strain of HSV-2; [16]", "value": "(0%)"}]}
{"smiles": "Nc1nc2c(ncn2COCCO)c(=O)[nH]1", "note": "[acyclovir]", "values": [{"measurement": "Survivors/treated", "setting": "McKrae strain of HSV-1; [17]", "value": "1/10"}, {"measurement": "Survivors/treated (%)", "setting": "McKrae strain of HSV-1; [17]", "value": 10, "unit": "%"}, {"measurement": "Survivors/treated", "setting": "McKrae strain of HSV-1; [18]", "value": "3/10"}, {"measurement": "Survivors/treated (%)", "setting": "McKrae strain of HSV-1; [18]", "value": 30, "unit": "%"}, {"measurement": "Survivors/treated", "setting": "McKrae strain of HSV-1; [19]", "value": "7/10"}, {"measurement": "Survivors/treated (%)", "setting": "McKrae strain of HSV-1; [19]", "value": 70, "unit": "%"}]}
{"smiles": "O=c1[nH]c(Nc2ccccc2)nc2c1ncn2CCCCO", "note": "[HBPG, 2-phenylamino-6-oxo-9-(4-hydroxybutyl)purine]", "values": [{"measurement": "amount of viral DNA in the relevant nerve ganglia", "setting": "HSV2; HSV2", "value": "reduce the amount of viral DNA"}, {"measurement": "frequency of hyperthermia-induced HSV2 reactivation", "setting": "HSV2", "value": "reduce the frequency"}, {"measurement": "Survivors/treated", "setting": "McKrae strain of HSV-1; [10]", "value": "1/10"}, {"measurement": "Survivors/treated", "setting": "McKrae strain of HSV-1; [11]", "value": "6/10*"}, {"measurement": "Survivors/treated (%)", "setting": "McKrae strain of HSV-1; [11]", "value": "(60%)"}, {"measurement": "Survivors/treated", "setting": "McKrae strain of HSV-1; [12]", "value": "9/10*"}, {"measurement": "Survivors/treated (%)", "setting": "McKrae strain of HSV-1; [12]", "value": "(90%)"}, {"measurement": "efficacy of HBPG alone", "setting": "McKrae strain of HSV-1; HSV1, 25 or 50 mg/kg HBPG alone", "value": "no efficacy"}, {"measurement": "amount of viral DNA in the relevant nerve ganglia", "setting": "HSV1 [2]; mice, HSV1", "value": "reduce the amount of viral DNA"}, {"measurement": "frequency of hyperthermia-induced HSV1 reactivation", "setting": "HSV1 [2]; mice", "value": "reduce the frequency"}, {"measurement": "preventing recurrence of ocular HSV1 disease", "setting": "HSV1 [2]; mouse model of latent HSV1 infection", "value": "clear efficacy"}, {"measurement": "Survivors/treated", "setting": "G strain of HSV-2; [13]", "value": "3/10"}, {"measurement": "Survivors/treated (%)", "setting": "G strain of HSV-2; [13]", "value": "(30%)"}, {"measurement": "Survivors/treated", "setting": "G strain of HSV-2; [14]", "value": "10/10*"}, {"measurement": "Survivors/treated (%)", "setting": "G strain of HSV-2; [14]", "value": "(100%)"}, {"measurement": "Survivors/treated", "setting": "G strain of HSV-2; [15]", "value": "9/10*"}, {"measurement": "Survivors/treated (%)", "setting": "G strain of HSV-2; [15]", "value": "(90%)"}, {"measurement": "efficacy of HBPG alone", "setting": "G strain of HSV-2; HSV2, 25 or 50 mg/kg HBPG alone", "value": "no efficacy"}, {"measurement": "Survivors/treated", "setting": "G strain of HSV-2; [16]", "value": "1/10"}, {"measurement": "Survivors/treated (%)", "setting": "G strain of HSV-2; [16]", "value": "(10%)"}, {"measurement": "Survivors/treated", "setting": "G strain of HSV-2; [20]", "value": "3/10"}, {"measurement": "Survivors/treated (%)", "setting": "G strain of HSV-2; [20]", "value": "(30) %"}, {"measurement": "preventing recurrence of ocular HSV1 disease", "setting": "HSV1 [3]; squirrel monkey model of latent HSV1 infection", "value": "clear efficacy"}, {"measurement": "frequency of recurrent ocular HSV1 disease", "setting": "HSV1 [3]; squirrel monkeys", "value": "reduce the frequency"}]}
